The values that follow come from US12134663B2, “Cationic peptides for activating Lck” (Interk Peptide Therapeutics Limited, priority 2018, dated 2024).

The test system of experiment [1] is wild-type Jurkat cells. The experiment in a line: IL-12 secretion in stimulated wild-type Jurkat cells (ELISA). The experiment is classed as cell-based, human. The following applies: biotinylated anti-CD3, anti-CD28, avidin; 48 h exposure. As for the experimental part:
The ability of Lck activating polypeptides to alter IL-12 secretion was examined. In brief, wild-type Jurkat cells (an immortalised line of human T lymphocyte cells) were stimulated by exposure to biotinylated anti-CD3 antibody in the presence of anti-CD28 antibody and avidin. During the culture period (48 hours) cells were exposed to test polypeptides. Cell supernatant was assayed for IL-12 at the end of 48 hours using a standard commercially available ELISA kit as described above.
In brief, cells were seeded at 1 million cells per well (12 well plate, 2 mL volume) and stimulated with Biotin-CD3, CD28, and avidin (5:5:1.25 μg). The cells were then treated with IK14800 (SEQ ID NO: 24), IK15800 (SEQ ID NO: 58), IK14804 (SEQ ID NO: 65) and IK15804 (SEQ ID NO: 66). The cells were then incubated for 48 hours at 37° C. The supernatants (100 uL, n=3), were then analyzed for IL-12 content.
In brief, wild-type Jurkat cells (am immortalised line of human T lymphocyte cells) were stimulated by exposure to biotinylated anti-CD3 antibody in the presence of anti-CD28 antibody and avidin. Cells were seeded at 1 million cells per well (12 well plate, 2 mL volume) and stimulated with Biotin-anti-CD3, anti-CD28, and avidin (5:5:1.25 μg). Cells were treated with the test peptides and then incubated for 48 hours at 37° C. The supernatants (100 ul, n=3), were then analysed for IL-2 and IL-12 content. […]
On the technique in general: An ELISA detects its analyte on a solid surface through an enzyme-linked reagent.

For experiment [2], the system named is wild-type Jurkat cells. The experiment in a line: IL-2R alpha (CD25) expression in PMA/ionomycin stimulated Jurkat cells. The experiment is classed as cell-based, human. Conditions: PMA and ionomycin stimulated; peptide 2.5 μM, 96 hours; cell lysates. As for the experimental part: In brief, wild-type Jurkat cells (1×10^6 cells) were cultured in standard RPMI medium and 10% foetal calf serum as above and either not stimulated or stimulated with PMA (50 ng/ml) and ionomycin for a period of 96 hours. Cells were exposed to the test peptides (2.5 μM conc.) listed in FIG. 10 for the entire 96 hour culture period, and IL-2R alpha levels were determined in cell lysates using a standard commercial ELISA format as described above.

The subject of experiment [3] is wild-type Jurkat cells. As to the kind of experiment: IL-2 secretion in stimulated wild-type Jurkat cells (ELISA). The experiment is classed as cell-based, human. The following applies: biotinylated anti-CD3, anti-CD28, avidin; 48 h exposure. As for the experimental part: In brief, wild-type Jurkat cells (an immortalised line of human T lymphocyte cells) were stimulated by exposure to biotinylated anti-CD3 antibody in the presence of anti-CD28 antibody and avidin. During the culture period (48 hours or 72 hours) cells were exposed to test polypeptides. Cell supernatant was assayed for IL-2 at the end of 48 or 72 hours using a standard commercially available ELISA kit as described above.
In brief, cells were seeded at 1 million cells per well (12 well plate, 2 mL volume) and stimulated with Biotin-CD3, CD28, and avidin (5:5:1.25 μg). The cells were then treated with IK14804, and then incubated for 48 hours at 37° C. The supernatant (100 uL, n=3), was then analyzed for IL-2 content.
In brief, wild-type Jurkat cells (am immortalised line of human T lymphocyte cells) were stimulated by exposure to biotinylated anti-CD3 antibody in the presence of anti-CD28 antibody and avidin. Cells were seeded at 1 million cells per well (12 well plate, 2 mL volume) and stimulated with Biotin-anti-CD3, anti-CD28, and avidin (5:5:1.25 μg). Cells were treated with the test peptides and then incubated for 48 hours at 37° C. The supernatants (100 ul, n=3), were then analysed for IL-2 and IL-12 content. During the culture period (48 hours) cells were exposed to test polypeptide RSKAKNPLYR-(2Adod)4-NH2 (SEQ ID NO: 128). Cell supernatant was assayed for IL-2 and IL-12 at the end of 48 hours using standard commercially available ELISA kit as described above.

The test system of experiment [4] is isolated human CD4+ T cells. As to the kind of experiment: IL-2 secretion from isolated stimulated CD4+ T cells. Conditions: anti-CD3 anti-CD28 Dynabeads, 0-1.25 μM, 24 hours; data not shown. The experiment is classed as cell-based. As for the experimental part: In brief, CD4+ and CD8+ T cells were isolated and immuno-magnetically separated from healthy human PBMCs. Levels of IL-2 were examined following anti-CD3 and anti-CD28 stimulation for 48 hours in the presence the Lck activating fusion polypeptide RSKAKNPLY-RRRRRRRRR (SEQ ID NO: 24).
The effect of Lck activating polypeptides on IL-2 secretion from CD4+ T cells in a stimulated CD4+ T cell assay was also examined. In brief, Isolated CD4+ T cells were stimulated with anti-CD3 anti-CD28 Dynabeads™ and cultured together with the Lck activating polypeptides RRRRRRRRR (SEQ ID NO: 6, “IK00900”) and RSKAKNPLY-RRRRRRRRR (SEQ ID NO: 24, “IK14800”), over a 5-concentration range plus vehicle control (0-1.25 μM) for 24 hours after which supernatants were assessed for IL-2 and IFN-γ by ELISA.

The subject of experiment [5] is isolated CD4+ T cells. As to the kind of experiment: IL-21R (CD360) expression in stimulated CD4+ T cell assay. The experiment is classed as cell-based, human. Conditions: anti-CD3 anti-CD28 Dynabeads; data not shown. As for the experimental part:
The effect of Lck activating polypeptides on IL-21R (CD360) expression on CD4+ T cells in a stimulated CD4+ T cell assay was examined. In brief, Isolated CD4+ T cells were stimulated with anti-CD3 anti-CD28 Dynabeads™ and cultured together with the Lck activating polypeptides RRRRRRRRR (SEQ ID NO: 6) and RSKAKNPLY-RRRRRRRRR (SEQ ID NO: 24), after which cells were assessed for IL-21R expression by flow cytometry.

Experiment [6] concerns human PBMCs. As to the kind of experiment: IFN-γ secretion by anti-CD3 stimulated PBMCs. Conditions: 48 hours; data not shown. The class given is cell-based. As for the experimental part: The ability of Lck activating polypeptides to alter IFN-γ secretion by human PBMCs was examined. In brief, anti-CD3 stimulated PBMCs were cultured together with the Lck activating polypeptides RRRRRRRRR (SEQ ID NO: 6), RVKVKVVVV-RRRRRRRRR (SEQ ID NO: 58) and RSKAKNPLY-RRRRRRRRR (SEQ ID NO: 24) for 48 hours after which supernatants were collected and assessed for IFN-γ by ELISA.

Experiment [7] has as its system anti-CD3 stimulated PBMCs. As to the kind of experiment: IL-12p70 secretion in anti-CD3 stimulated PBMCs. The class given is cell-based, human. The following applies: 24 hours. As for the experimental part: The ability of Lck activating polypeptides to alter IL-12 (IL-12p70) secretion was examined further. In brief, anti-CD3 stimulated PBMCs were cultured together with the Lck activating polypeptides RVKVKVVVV-RRRRRRRRR (SEQ ID NO: 58, “IK15800”), RSKAKNPLY-RRRRRRRRR (SEQ ID NO: 24, “IK14800”), and RVKVKVVVV-RRRRRRRRR (SEQ ID NO: 58) and RSKAKNPLY-RRRRRRRRR (SEQ ID NO: 24) comprising only D amino acids (SEQ ID NO: 111, “IKD15800”, and SEQ ID NO: 129, “IKD14800”, respectively), in the presence and absence of anti-CD40L blocking antibody for 24 hours. Supernatants were assessed for IL-12p70 levels by ELISA.
The ability of Lck activating polypeptides to alter IL-12 (IL-12p70) secretion was examined relative to no peptide. In brief, PBMCs were cultured together with anti-CD3 (1 ug/ml) and the Lck activating polypeptide RSKAKNPLY-RRRRRRRRR (SEQ ID NO: 24) or RVKVKVVVV-RRRRRRRRR (SEQ ID NO: 58) for 24 or 72 hours. Supernatants were assessed for IL-12p70 levels by ELISA.

For experiment [8], the system named is isolated human CD8+ T cells. As to the kind of experiment: IFN-γ secretion in stimulated CD8+ T cell assay. The experiment is classed as cell-based. The following applies: anti-CD3 anti-CD28 Dynabeads, 24 hours. As for the experimental part:
The ability of Lck activating polypeptides to alter IFN-γ secretion by isolated human CD8+ T cells in a stimulated CD8+ T cell assay was examined. In brief, Isolated CD8+ T cells were stimulated with anti-CD3 anti-CD28 Dynabeads™ and cultured together with the Lck activating polypeptides RRRRRRRRR (SEQ ID NO: 6, IK00900) and RSKAKNPLY-RRRRRRRRR (SEQ ID NO: 24, IK14800) for 24 hours after which supernatants were assessed for IFN-γ by ELISA.
In brief, Isolated CD8+ T cells were stimulated with anti-CD3 anti-CD28 Dynabeads™ and cultured together with the Lck activating polypeptide RSKAKNPLY-RRRRRRRRR (SEQ ID NO: 24), comprising only D amino acids (SEQ ID NO: 129, IKD14800), for 24 hours after which supernatants were assessed for IFN-γ by ELISA.

Experiment [9] deals with isolated human CD4+ T cells. The experiment in a line: IFN-γ secretion in stimulated CD4+ T cell assay. The experiment is classed as cell-based. The following applies: anti-CD3 anti-CD28 Dynabeads, 24 hours. As for the experimental part:
The ability of Lck activating polypeptides to alter IFN-γ secretion by isolated human CD4+ T cells in a stimulated CD4+ T cell assay was also examined. In brief, Isolated CD4+ T cells were stimulated with anti-CD3 anti-CD28 Dynabeads™ and cultured together with the Lck activating polypeptides RRRRRRRRR (SEQ ID NO: 6, IK00900) and RSKAKNPLY-RRRRRRRRR (SEQ ID NO: 24, IK14800) for 24 hours after which supernatants were assessed for IFN-γ by ELISA.
The ability of Lck activating polypeptides comprising D amino acids to alter IFN-γ secretion by isolated human CD4+ T cells in a stimulated CD4+ T cell assay was also examined. In brief, Isolated CD4+ T cells were stimulated with anti-CD3 anti-CD28 Dynabeads™ and cultured together with the Lck activating polypeptide RSKAKNPLY-RRRRRRRRR (SEQ ID NO: 24, IK14800), or the Lck activating polypeptide RSKAKNPLY-RRRRRRRRR (SEQ ID NO: 24) comprising only D amino acids (SEQ ID NO: 129, IKD14800), for 24 hours after which supernatants were assessed for IFN-γ by ELISA.

In experiment [10] the test system is CD4+ T cells. The experiment in a line: IL-21 production by CD4+ T cells. The class given is cell-based. The following applies: anti-CD3 anti-CD28, 48 hr; detected in one donor only. As for the experimental part:
In brief, CD4+ T cells were isolated and cultured in the presence of anti-CD3 anti-CD28 stimulation and RSKAKNPLY-RRRRRRRRR (SEQ ID NO: 24) for 24 hr or 48 hr. At the end of culture, supernatants were assessed for IL-21 by ELISA.

Where no end group is shown, it is not given here. [ ]: non-standard residue; d: D form.

For the substance “rskaknply ([dR][dS][dK][dA][dK][dN][dP][dL][dY]) [IKD94000]”, in experiment [1], the “IL-12 secretion relative to control” value is “increase IL-12 secretion”.

On to “RSKAKNPLY-RRRRRRRRRR (RSKAKNPLYRRRRRRRRRR) [IK14900]”, for which the “IL-2R alpha (CD25) expression” value in experiment [2] is reported as “increased”.

For “RSKAKNPLY-RRRRRRRRR-HHHHHHHHHHHH (RSKAKNPLYRRRRRRRRRHHHHHHHHHHHH) [IK14820]”, the “IL-2R alpha (CD25) expression” value in experiment [2] was “increased”.

Regarding RRRRRRRRR [IK00900], the figures for the “IL-2 secretion relative to control” value in experiment [3] and in experiment [4] were “induces IL-2 secretion” and “induce IL-2 secretion”, respectively. Also, the IL-21R expression result in experiment [5] is “do not increase IL-21R expression”. For the same substance, the “IL-12 secretion relative to control” value in experiment [1] is “induced IL-12 secretion”. The “IFN-γ secretion relative to no peptide control” value in [6] was “induce IFN-γ secretion”; in experiment [8] it was “induced IFN-γ secretion”; in experiment [9] it was “induced IFN-γ secretion”. Moreover, the “IL-12 (IL-12p70) secretion relative to cultures with anti-CD40L blocking antibody” value in experiment [7] is listed as “induced IL-12 secretion”.

For the substance “HHHHH-RSKAKNPLY-RRRRRRRRR (HHHHHRSKAKNPLYRRRRRRRRR) [IK11480]”, the “IL-2R alpha (CD25) expression” value in experiment [2] is reported as “increased”.

As to “IL-6: control in FIG. 28 showing boost to IL-21 secretion”, in experiment [10], the IL-21 production result is listed as “boost to IL-21 secretion”.
